Laboratory results reported in BindingDB's records for patent US10800778 (Entasis Therapeutics Limited, 2020).

Experiments:
Beta-lactamase = Beta-lactamase (Klebsiella pneumoniae, UniProt Q6XEC0); assay: Inhibition of Beta-Lactamase Enzymes
Procedure: (§1) A buffer consisting of 0.1 M sodium phosphate (pH 7.0), 10 mM NaHCO3, and 0.005% Triton X-100 was used for all enzymes. The chromogenic substrate nitrocefin (SynGene, Bangalore, India) was used at 100 μM. Enzyme activity was monitored by the 490 nm absorbance increase upon nitrocefin hydrolysis. Assays were performed in clear polystyrene 384-well plates (Greiner Bio-One, Monroe, N.C.). Absorbance was measured for 1 hour at 30-s intervals using a Spectramax absorbance plate reader (Molecular Devices, Sunnyvale, Calif.). Measurement of beta-lactamase inhibition by INHIBITOR employed serial 3-fold dilutions of the inhibitor in assay buffer, ranging from 100 μM to 62.7 pM. A background absorbance progress curve for a control lacking enzyme and inhibitor was subtracted from each progress curve.

Beta-lactamase TEM = Beta-lactamase TEM (Escherichia coli, UniProt P62593); assay: Inhibition of Beta-Lactamase Enzymes
Procedure: as §1

Beta-lactamase, sequence (Q6XEC0 whole entry): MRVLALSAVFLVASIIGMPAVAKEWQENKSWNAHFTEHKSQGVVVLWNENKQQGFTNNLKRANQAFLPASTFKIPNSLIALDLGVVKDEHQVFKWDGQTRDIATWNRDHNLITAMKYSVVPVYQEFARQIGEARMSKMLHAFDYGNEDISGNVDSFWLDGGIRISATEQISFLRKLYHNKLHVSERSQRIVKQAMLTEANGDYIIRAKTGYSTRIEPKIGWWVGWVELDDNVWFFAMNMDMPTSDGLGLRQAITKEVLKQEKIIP
Beta-lactamase TEM, sequence (P62593 whole entry): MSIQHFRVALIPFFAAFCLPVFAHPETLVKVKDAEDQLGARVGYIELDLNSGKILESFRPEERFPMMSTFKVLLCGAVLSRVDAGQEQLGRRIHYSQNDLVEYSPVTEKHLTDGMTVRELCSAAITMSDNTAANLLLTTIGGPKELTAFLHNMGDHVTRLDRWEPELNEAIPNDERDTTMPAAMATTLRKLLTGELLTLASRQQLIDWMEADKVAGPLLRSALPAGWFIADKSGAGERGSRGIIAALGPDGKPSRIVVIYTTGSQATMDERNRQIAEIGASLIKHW

CC1=C[C@@H]2CN(C(=O)N2O[C@@H](F)C(=O)O)[C@@H]1C(=O)NOC[C@@H]1CCCN1 [US10800778, Example 62]
IC50 (Beta-lactamase): 870 nM | IC50 (Beta-lactamase TEM): 210 nM
